The values below come from EP1222265B1, “NOVEL NICOTINIC ACETYLCHOLINE RECEPTOR SUBUNIT, ITS ISOLATION AND USE” (Sanofi-Aventis, priority 1999, dated 2001).

Like-named read-outs stand apart in the source and are kept apart here.

Test [1] concerns the target T1, Heteromeric α9-HNARA10 receptors (Homo sapiens, UniProt Q9GZZ6+Q9UGM1).
T1 construct: expressed in transfected cells; host or cells: Xenopus laevis oocytes (nuclear injection of cDNA)
As to the kind of experiment: ACh-evoked currents in Xenopus laevis oocytes injected with human α9 and HNARA10 cDNAs. Format: cell-based. The conditions noted are these: for antagonism of ACh responses: α9+HNARA10 receptors.

In the next test the target is T2, homomeric α9 receptors (Homo sapiens, UniProt Q9UGM1).
T2 construct: expressed in transfected cells; host or cells: Xenopus laevis oocytes (cDNA injection)
T2 sequence (Q9UGM1 23-479): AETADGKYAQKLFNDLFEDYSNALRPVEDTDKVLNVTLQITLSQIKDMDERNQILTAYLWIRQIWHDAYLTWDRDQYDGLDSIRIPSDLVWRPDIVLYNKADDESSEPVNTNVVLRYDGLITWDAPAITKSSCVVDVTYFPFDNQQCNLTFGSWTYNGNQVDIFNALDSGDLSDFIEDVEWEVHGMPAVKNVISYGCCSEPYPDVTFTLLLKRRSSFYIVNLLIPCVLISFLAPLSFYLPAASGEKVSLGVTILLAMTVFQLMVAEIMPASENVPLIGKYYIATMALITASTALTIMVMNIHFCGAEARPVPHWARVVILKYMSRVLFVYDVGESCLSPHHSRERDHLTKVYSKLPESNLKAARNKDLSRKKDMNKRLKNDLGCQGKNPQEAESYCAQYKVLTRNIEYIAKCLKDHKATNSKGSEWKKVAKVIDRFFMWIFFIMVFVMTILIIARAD
In kind it is cell-based.

For test [2], the target named is human nicotinic acetylcholine receptor α9 subunit (homomeric α9 receptors) (human) (UniProt Q9UGM1). As to the kind of experiment: cell-based or functional assay.
Chain of human nicotinic acetylcholine receptor α9 subunit (homomeric α9 receptors) (human) (Q9UGM1 23-479): as above

T1 sequence (Q9UGM1 23-479): as above
T1 sequence (Q9GZZ6 25-450): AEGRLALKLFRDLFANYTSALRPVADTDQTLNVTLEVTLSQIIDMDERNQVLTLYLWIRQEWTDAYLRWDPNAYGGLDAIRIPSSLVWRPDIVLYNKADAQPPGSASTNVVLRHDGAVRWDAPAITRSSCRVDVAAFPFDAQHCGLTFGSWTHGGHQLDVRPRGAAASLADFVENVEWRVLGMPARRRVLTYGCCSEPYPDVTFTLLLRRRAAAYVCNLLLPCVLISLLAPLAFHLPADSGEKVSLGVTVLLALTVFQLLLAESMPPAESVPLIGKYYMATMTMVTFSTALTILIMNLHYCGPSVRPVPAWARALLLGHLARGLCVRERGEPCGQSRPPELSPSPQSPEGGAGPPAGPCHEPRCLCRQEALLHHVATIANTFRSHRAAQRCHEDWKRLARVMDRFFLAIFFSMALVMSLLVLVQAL

Turning to `COc1cc2c3cc1Oc1cc(ccc1O)C[C@@H]1c4c(cc(OC)c(O)c4Oc4ccc(cc4)C[C@@H]3N(C)CC2)CC[N+]1(C)C` [d-tubocurarine], the “antagonism of ACh responses” value (in test [1]; at homomeric α9 receptors (α9 receptors)) was “fully antagonized” each time.

With `Clc1ccc(C2CC3CCC2N3)cn1` (centres unmarked) [epibatidine], the agonist response entry (in test [1] (α9+HNARA10 expressing oocytes); at homomeric α9 receptors (α9 expressing oocytes)) was “did not elicit any response” in each case.

For the molecule `C[N+](C)(C)CCOC(N)=O` [carbachol], in test [1] (oocytes expressing the mixture α9-HNARA10, from dose-response curves), the “evoked current (partial agonist)” value is listed as “about 72%”.

Take `CN1CCCC1c1cccnc1` (centres unmarked) [nicotine]: the agonist response entry (in test [1]; at homomeric α9 receptors) was “did not elicit any response” each time.

Consider `CO[C@H]1CC=C2CCN3CCC4=C(CC(=O)OC4)[C@]23C1` [dihydro-β-erythroidine], for which the “antagonism of ACh responses” value in test [1] is recorded as “did not have any effect”.

With `C[N+]1(C)CCN(c2ccccc2)CC1` [DMPP], the agonist response entry (in test [1]; on homomeric α9 receptors) was “did not elicit any response” each time.

As for “HNARA10 polypeptide (human nicotinic acetylcholine receptor alpha 10 subunit)”, the amplitude of acetylcholine-evoked currents in Xenopus oocytes, α9-HNARA10 mixture against α9 alone in test [2] worked out at 100 fold.
